Tests used:
[1] = LC-MS/MS analysis of XN, DXN and TXN in mouse liver, plasma and muscle; assay type: in vivo; conditions: for Plasma concentration, fold greater than combined XN + IX / Muscle concentration, fold greater than combined XN + IX / Liver concentration, fold greater than combined XN + IX: HFD mice, 30 mg/kg/day in diet, 13 weeks; for Muscle concentration, fold greater than combined XN + IX: hind leg skeletal muscle; for Liver concentration, fold greater than combined XN + IX: steady state
Description: Nine-week old male C57BL/6J mice, obtained from The Jackson Laboratory (Bar Harbor, ME, USA), were housed individually in plastic cages under a 12–12-hr light-dark cycle. They were assigned randomly to four groups consisting of 12 mice each. One group (control) was fed a HFD (Dyets Inc., Bethlehem, PA, USA) containing 60%, 20% and 20% total calories from fat, carbohydrate and protein, respectively, and the other three groups were fed the HFD containing XN, DXN, or TXN. The test compounds were dissolved in an isotropic mixture of oleic acid:propylene glycol:Tween 80, 0.9:1:1 by weight (OPT) before incorporation into the HFD. The control diet contained an identical amount of OPT. All diets were prepared in pellet form by Dyets, Inc. (Bethlehem, PA, USA). The mouse diets were formulated to deliver a dose of 30 mg test compound per kg body weight per day. Food intake was measured three times per week and body weights were recorded weekly. At the end of 13 weeks of feeding, the mice were euthanized and blood, liver and skeletal muscle were collected for analyses. All animal protocols were approved by Institutional Animal Care and Use Committee (IACUC) at Oregon State University. Animal experiments were carried out in accordance with the relevant guidelines and regulations.
Liver and plasma from each mouse were subjected to enzymatic hydrolysis, extracted and analyzed using the paper strip extraction technique as previously described[36],[96]. For skeletal muscle, approximately 200 mg of frozen muscle tissue were placed into tubes containing ceramic beads (1.4 mm Ceramic, Bulk Beads, Fisher Scientific, Pittsburgh, PA, USA) and methanol:water (90:10; 500 μL/200 mg tissue) and homogenized using a Precellys 24 (PEQLAB Biotechnology GmbH, Germany). The tissue was homogenized for 3 × 30 sec at 6,500 rpm with 20 sec intervals and then centrifuged at 15,700 × g for 10 minutes and 100 μl of supernatant was used for the paper strip extraction as previously described[36],[96]. Concentrations of XN, DXN and TXN were calculated using an internal standard, 2′,4-dihydroxychalcone (DHC), with matrix-based calibration curves and Analyst Software (Analyst 1.5, AB Sciex, Foster City, CA, USA). Samples were analyzed by LC-MS/MS using an AB Sciex 4000 Q-trap triple quadrupole mass spectrometer using a source temperature of 600 °C and a needle voltage of −4500 V. The source, curtain and collision gases were all nitrogen. Analytes were separated by high performance liquid chromatography (HPLC) using a 2.1 × 50 mm Agilent Zorbax 300 SB – C8 3.5 µm column (Agilent, Santa Clara, CA, USA). The elution gradient was 25 to 60% solvent B (0.1% formic acid in acetonitrile) in solvent A (aqueous 0.1% formic acid) in 2.6 minutes using a flow rate of 0.5 ml/min after an initial 1.4 min at 25% solvent B. The gradient was then increased to 100% solvent B in 0.1 min and held at 100% B for 1.4 min, then dropped to 25% B in 0.25 minutes, followed by re-equilibration with 25% B for 9.25 minutes. SRM transitions for quantification were: m/z 353 → 119 for XN, m/z 353 → 233 for IX, m/z 339 → 219 for 8-PN, m/z 355 → 249 for DXN, m/z 357 → 251 for TXN, and m/z 239 → 119 for DHC.

quinone reductase = system: quinone reductase; set-up: method as in PMID 10737704; conditions: cited from earlier work
mice = conditions: cited from earlier work
HFD-fed C57BL/6 J mice = system: HFD-fed C57BL/6 J mice; set-up: method as in PMID 26976708; conditions: oral, 60 mg/kg/day; cited from earlier work

Plasma concentration, fold greater than combined XN + IX [1] | Muscle concentration, fold greater than combined XN + IX [1] | Liver concentration, fold greater than combined XN + IX [1] | concentration at 13 weeks ([1]; male, C57BL/6J, mouse, liver, oral dosing at 30 mg/kg/day, read-out: Liver concentration (highest measured)) | Liver tissue concentration (highest measured) ([1]; mouse dose of 30 mg/kg/day) | Structure (SMILES) | Induction of quinone reductase (quinone reductase) | Dose with no detectable toxicity (mice) | HOMA-IR, change vs vehicle/HFD controls (HFD-fed C57BL/6 J mice) | Interleukin-6 (IL-6), change vs vehicle/HFD controls (HFD-fed C57BL/6 J mice) | Leptin, change vs vehicle/HFD controls (HFD-fed C57BL/6 J mice) | Plasma LDL-c, change vs vehicle/HFD controls (HFD-fed C57BL/6 J mice) | Plasma PCSK9, change vs vehicle/HFD controls (HFD-fed C57BL/6 J mice)
7 fold | 7 fold | 6 fold |  |  | COc1cc(O)c(CC=C(C)C)c(O)c1C(=O)CCc1ccc(O)cc1 [DXN, α,β-Dihydroxanthohumol] |  |  |  |  |  |  | 
10 fold | 5 fold | 12 fold | 5 µM | 5 nmol/g | COc1cc(O)c(CCC(C)C)c(O)c1C(=O)CCc1ccc(O)cc1 [TXN, tetrahydroxanthohumol] |  |  |  |  |  |  | 
 |  |  |  |  | COc1cc(O)c(CC=C(C)C)c(O)c1C(=O)/C=C/c1ccc(O)cc1 [XN, 3′-[3,3-dimethylallyl]-2′,4′,4-trihydroxy-6′-methoxychalcone] | potent inducer | at least 1,000 mg/kg | −52% | −78% | −41% | −80% | −44%

— publication PMC5766630, “Non-estrogenic Xanthohumol Derivatives Mitigate Insulin Resistance and Cognitive Impairment in High-Fat Diet-induced Obese Mice” (Scientific Reports, 2018)
